Test system: genes specific for sensitization (BRAK, CTSS, DAPK2, FABP4, HSP27, IL18, HSP90, IL1R2, TPSAB1, CXCR1, DEFB1, DHFR, EHF, IVL, KRT4, MELANA, NGAL, PDZK1IP1, PI3 …)
Experiment: Expression of the other (non-ARE) sensitization-specific genes in EPISKIN reconstructed skin (quantitative RT-PCR);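 for CTSS NUMBER OF GENES grade: grade scored against expression in the control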;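 for CXCR1 NUMBER OF GENES grade: grade scored against expression in the control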;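 for DAPK2 NUMBER OF GENES grade: grade scored against expression in the control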
Assay type: cell-based, human

## O=CC=O [Glyoxal]
0.1%
  BRAK NUMBER OF GENES grade: 0 (if this expression is lower, the grade is 0)
  CTSS NUMBER OF GENES grade: 0 (if this expression is lower, the grade is 0)
  CXCR1 NUMBER OF GENES grade: 0 (if this expression is lower, the grade is 0)
  DAPK2 NUMBER OF GENES grade: 0 (if this expression is lower, the grade is 0)
  DEFB1 NUMBER OF GENES grade: 0 (if this expression is lower, the grade is 0)
  DHFR NUMBER OF GENES grade: 0 (if this expression is lower, the grade is 0)
  EHF NUMBER OF GENES grade: 0 (if this expression is lower, the grade is 0)
  FABP4 NUMBER OF GENES grade: 0 (if this expression is lower, the grade is 0)
  HSP27 NUMBER OF GENES grade: 0 (if this expression is lower, the grade is 0)
  HSP90 NUMBER OF GENES grade: 0 (if this expression is lower, the grade is 0)
  IL18 NUMBER OF GENES grade: 0 (if this expression is lower, the grade is 0)
  IVL NUMBER OF GENES grade: 0 (if this expression is lower, the grade is 0)
  KRT4 NUMBER OF GENES grade: 0 (if this expression is lower, the grade is 0)
  MELANA NUMBER OF GENES grade: 0 (if this expression is lower, the grade is 0)
  NGAL NUMBER OF GENES grade: 0 (if this expression is lower, the grade is 0)
  P13 NUMBER OF GENES grade: 0 (if this expression is lower, the grade is 0)
  PDZK1iP1 NUMBER OF GENES grade: 0 (if this expression is lower, the grade is 0)
  SENS >1.3 (number of genes): 0
  SERPINB3 NUMBER OF GENES grade: 0 (if this expression is lower, the grade is 0)
  TOTAL SENS (number of genes): 0
0.1%, compared to the control
  BRAK expression: 0.6
  CTSS expression: 1.0
  CXCR1 expression: 1.1
  DAPK2 expression: 0.9
  DEFB1 expression: 0.8
  DHFR expression: 0.9
  EHF expression: 0.8
  FABP4 expression: 0.4
  HSP27 expression: 0.7
  HSP90 expression: 1.0
  IL18 expression: 0.8
  IVL expression: 0.7
  KRT4 expression: 0.9
  MELANA expression: 0.5
  NGAL expression: 0.7
  P13 expression: 0.8
  PDZK1iP1 expression: 0.9
  SERPINB3 expression: 1.0
1%
  BRAK NUMBER OF GENES grade: 0 (if this expression is lower, the grade is 0)
  CTSS expression compared to control: 1.3
  CTSS grade (NUMBER OF GENES): 1 (If the expression is greater than 1.3 compared to the control, a grade of 11s given)
  CXCR1 expression compared to control: 1.6
  CXCR1 grade (NUMBER OF GENES): 1 (If the expression is greater than 1.3 compared to the control, a grade of 11s given)
  DAPK2 expression compared to control: 0.9
  DAPK2 grade (NUMBER OF GENES): 0 (if this expression is lower, the grade is 0)
  DEFB1 expression compared to control: 1.4
  DEFB1 grade (NUMBER OF GENES): 1 (If the expression is greater than 1.3 compared to the control, a grade of 11s given)
  DHFR NUMBER OF GENES grade: 0 (if this expression is lower, the grade is 0)
  EHF expression compared to control: 0.9
  EHF grade (NUMBER OF GENES): 0 (if this expression is lower, the grade is 0)
  FABP4 expression compared to control: 0.8
  FABP4 grade (NUMBER OF GENES): 0 (if this expression is lower, the grade is 0)
  HSP27 expression compared to control: 0.8
  HSP27 grade (NUMBER OF GENES): 0 (if this expression is lower, the grade is 0)
  HSP90 NUMBER OF GENES grade: 0 (if this expression is lower, the grade is 0)
  IL18 NUMBER OF GENES grade: 0 (if this expression is lower, the grade is 0)
  IVL expression compared to control: 1.7
  IVL grade (NUMBER OF GENES): 1 (If the expression is greater than 1.3 compared to the control, a grade of 11s given)
  KRT4 NUMBER OF GENES grade: 0 (if this expression is lower, the grade is 0)
  MELANA NUMBER OF GENES grade: 0 (if this expression is lower, the grade is 0)
  NGAL expression compared to control: 0.6
  NGAL grade (NUMBER OF GENES): 0 (if this expression is lower, the grade is 0)
  P13 expression compared to control: 1.4
  P13 grade (NUMBER OF GENES): 1 (If the expression is greater than 1.3 compared to the control, a grade of 11s given)
  PDZK1iP1 NUMBER OF GENES grade: 0 (if this expression is lower, the grade is 0)
  SENS >1.3 (number of genes): 6
  SERPINB3 NUMBER OF GENES grade: 0 (if this expression is lower, the grade is 0)
  TOTAL SENS (number of genes): 6
1%, compared to the control
  BRAK expression: 0.5
  DHFR expression: 0.9
  HSP90 expression: 1.1
  IL18 expression: 1.0
  KRT4 expression: 0.6
  MELANA expression: 1.1
  PDZK1iP1 expression: 1.0
  SERPINB3 expression: 1.1
10%
  BRAK NUMBER OF GENES grade: 0 (if this expression is lower, the grade is 0)
  CTSS expression compared to control: 2.2
  CTSS grade (NUMBER OF GENES): 1 (If the expression is greater than 1.3 compared to the control, a grade of 11s given)
  CXCR1 expression compared to control: 1.8
  CXCR1 grade (NUMBER OF GENES): 1 (If the expression is greater than 1.3 compared to the control, a grade of 11s given)
  DAPK2 expression compared to control: 0.9
  DAPK2 grade (NUMBER OF GENES): 0 (if this expression is lower, the grade is 0)
  DEFB1 expression compared to control: 1.6
  DEFB1 grade (NUMBER OF GENES): 1 (If the expression is greater than 1.3 compared to the control, a grade of 11s given)
  DHFR NUMBER OF GENES grade: 0 (if this expression is lower, the grade is 0)
  EHF expression compared to control: 0.9
  EHF grade (NUMBER OF GENES): 0 (if this expression is lower, the grade is 0)
  FABP4 expression compared to control: 0.8
  FABP4 grade (NUMBER OF GENES): 0 (if this expression is lower, the grade is 0)
  HSP27 expression compared to control: 0.8
  HSP27 grade (NUMBER OF GENES): 0 (if this expression is lower, the grade is 0)
  HSP90 NUMBER OF GENES grade: 1 (If the expression is greater than 1.3 compared to the control, a grade of 11s given)
  IL18 NUMBER OF GENES grade: 1 (If the expression is greater than 1.3 compared to the control, a grade of 11s given)
  IVL expression compared to control: 1.6
  IVL grade (NUMBER OF GENES): 1 (If the expression is greater than 1.3 compared to the control, a grade of 11s given)
  KRT4 NUMBER OF GENES grade: 1 (If the expression is greater than 1.3 compared to the control, a grade of 11s given)
  MELANA NUMBER OF GENES grade: 0 (if this expression is lower, the grade is 0)
  NGAL expression compared to control: 1.3
  NGAL grade (NUMBER OF GENES): 1 (If the expression is greater than 1.3 compared to the control, a grade of 11s given)
  P13 expression compared to control: 1.3
  P13 grade (NUMBER OF GENES): 1 (If the expression is greater than 1.3 compared to the control, a grade of 11s given)
  PDZK1iP1 NUMBER OF GENES grade: 1 (If the expression is greater than 1.3 compared to the control, a grade of 11s given)
  SENS >1.3 (number of genes): 13
  SERPINB3 NUMBER OF GENES grade: 1 (If the expression is greater than 1.3 compared to the control, a grade of 11s given)
  TOTAL SENS (number of genes): 13
10%, compared to the control
  BRAK expression: 0.5
  DHFR expression: 0.9
  HSP90 expression: 1.5
  IL18 expression: 1.3
  KRT4 expression: 1.4
  MELANA expression: 1.1
  PDZK1iP1 expression: 1.4
  SERPINB3 expression: 1.3
50%
  BRAK NUMBER OF GENES grade: 0 (if this expression is lower, the grade is 0)
  CTSS expression compared to control: 2.7
  CTSS grade (NUMBER OF GENES): 1 (If the expression is greater than 1.3 compared to the control, a grade of 11s given)
  CXCR1 expression compared to control: 2.7
  CXCR1 grade (NUMBER OF GENES): 1 (If the expression is greater than 1.3 compared to the control, a grade of 11s given)
  DAPK2 expression compared to control: 0.9
  DAPK2 grade (NUMBER OF GENES): 0 (if this expression is lower, the grade is 0)
  DEFB1 expression compared to control: 1.6
  DEFB1 grade (NUMBER OF GENES): 1 (If the expression is greater than 1.3 compared to the control, a grade of 11s given)
  DHFR NUMBER OF GENES grade: 0 (if this expression is lower, the grade is 0)
  EHF expression compared to control: 0.9
  EHF grade (NUMBER OF GENES): 0 (if this expression is lower, the grade is 0)
  FABP4 expression compared to control: 0.8
  FABP4 grade (NUMBER OF GENES): 0 (if this expression is lower, the grade is 0)
  HSP27 expression compared to control: 0.8
  HSP27 grade (NUMBER OF GENES): 0 (if this expression is lower, the grade is 0)
  HSP90 NUMBER OF GENES grade: 1 (If the expression is greater than 1.3 compared to the control, a grade of 11s given)
  IL18 NUMBER OF GENES grade: 0 (if this expression is lower, the grade is 0)
  IVL expression compared to control: 1.5
  IVL grade (NUMBER OF GENES): 1 (If the expression is greater than 1.3 compared to the control, a grade of 11s given)
  KRT4 NUMBER OF GENES grade: 0 (if this expression is lower, the grade is 0)
  MELANA NUMBER OF GENES grade: 0 (if this expression is lower, the grade is 0)
  NGAL expression compared to control: 0.6
  NGAL grade (NUMBER OF GENES): 0 (if this expression is lower, the grade is 0)
  P13 expression compared to control: 1.4
  P13 grade (NUMBER OF GENES): 1 (If the expression is greater than 1.3 compared to the control, a grade of 11s given)
  PDZK1iP1 NUMBER OF GENES grade: 0 (if this expression is lower, the grade is 0)
  SENS >1.3 (number of genes): 8
  SERPINB3 NUMBER OF GENES grade: 1 (If the expression is greater than 1.3 compared to the control, a grade of 11s given)
  TOTAL SENS (number of genes): 8
50%, compared to the control
  BRAK expression: 0.5
  DHFR expression: 0.9
  HSP90 expression: 2.0
  IL18 expression: 1.0
  KRT4 expression: 0.6
  MELANA expression: 1.1
  PDZK1iP1 expression: 1.0
  SERPINB3 expression: 1.7
